Results on ten molecules are retold here after patent US4996219A, “Imidazolidine derivatives as immunosuppressives” (Boehringer Mannheim GmbH, priority 1988, dated 1991).

Test [1] deals with Mice splenocytes. Description: Concanavalin-A induced lymphocyte proliferation (LPT). It counts as cell-based. On the procedure: (a) Concanavalin-A induced lymphocyte proliferation (LPT)
Mice splenocytes are adjusted in RPMI 1640 medium (with conventional additions of streptomycin, penicillin, L-glutamine and 10% fetal calf serum) to a cell density of 2×10^6 viable cells per ml. 200 μl of this cell suspension are mixed with 20 μl of an 11-fold concentrated solution of the substance to be tested. 0,5 /μg of Concanavalin A in 10 μl of phosphate buffered saline solution (PBS) are added as mitogenic stimulus to each culture. 5 hours before the end of the 48 h incubation period, the individual cultures receive 20 /μl of a 3H-thymidine solution and the proliferation of the cells is determined by means of incorporated radioactivity.
(§1) For the upper two compounds the means plus standard deviations from n experiments are shown.

The test system of test [2] is Meth A fibrosaccoma cell line. Description: Tumor-growth Inhibition Test (TGI). It counts as cell-based, mice. As to conditions: 48 h, 3H thymidine incorporation, Imexon and Ex. 1: mean ± standard deviation of n experiments, others: single tests No. 1-3; for IC50: Mus musculus, Meth-A. On the procedure: (b) Tumor-growth Inhibition Test
A Meth A fibrosaccoma cell line is passaged weekly as ascites in mice. After the ascites is punctured, the cells are washed and adjusted to a cell density of 5×10^4 vital cells/ml in the aforementioned medium. 200 /μl of this suspension are pipetted into the cavities of a microtitration plate and solution of the substances to be tested are added as above. 3 hours before the end of the 48 h incubation period ^3 H thymidine is added. The proliferation of the individual cultures is determined by the incorporated radioactive thymidine.
as §1
A general note: Uptake of a labelled nucleoside into DNA is a usual measure of proliferation.

Test [3] deals with human T-lymphocytes. Put plainly: Interleukin-2 dependent proliferation of human T-lymphocytes (IL-2). The test is classed as cell-based. As to conditions: IL-2 stimulated, 48 h, 3H thymidine incorporation, Imexon and Ex. 1: mean ± standard deviation of n experiments, others: single tests No. 1-3; for IC50: Homo sapiens, T-lymphocyte. On the procedure:
(c) Interleukin-2 dependent proliferation of human T-lymphocytes (IL-2)
The mononuclear cell fraction is separated from heparinized human whole blood by means of a Ficoll gradient. After washing twice, the cell number is adjusted to 1×10^6 ml and incubation is carried out with 3 /μg/ml of Concanavalin A for 3 days. After washing twice, the cell number is set to 5×10^5 cells/ml. 160 /μl of this cell suspension are incubated with 20 /μl IL-2 and 20 /μl of a dilution of the test substance in microtitration plates for a total of 48 h. 4 hours before the end of incubation, ^3 H thymidine is added. The proliferation of the cultures is determined by means of the incorporated radioactivity.
as §1

Test [4] relates to human B lymphocytes. Put plainly: B-cell growth factor dependent proliferation of human B lymphocytes (BCGF). It counts as cell-based. As to conditions: BCGF stimulated, 140 h, 3H thymidine incorporation, Imexon and Ex. 1: mean ± standard deviation of n experiments, others: single tests No. 1-3; for IC50: Homo sapiens, Lymphocyte. The text has this: (d) B-cell growth factor dependent proliferation of human B lymphocytes (BCGF). The macrophage/monocytes are removed from the mononuclear cell fraction (see above) by adhesion to plastic petri dishes. T lymphocytes are separated by rosetting with neuraminidase-treated sheep erythrocytes. The enriched human B-lymphocyte population so obtained is adjusted to 3×10^5 /ml. 160 /μl of this suspension together with 10 /μl of BCGF (B cell growth factor) and 20 /μl of the substance dilution to be tested are incubated for a total of 140 h. 16 h before the end of incubation, ^3 H thymidine is added and analysis is carried out as already described. […] For the upper two compounds the means plus standard deviations from n experiments are shown.

Setting [5] is: Concanavalin A stimulated, 48 h, 3H-thymidine incorporation; Imexon and Ex. 1: mean ± standard deviation of n experiments, others: single tests No. 1-3.
Where [6] appears, read: Mus musculus, Splenocyte, Concanavalin A stimulated, 48 h, 3H-thymidine incorporation; Imexon and Ex. 1: mean ± standard deviation of n experiments, others: single tests No. 1-3.

Converted amounts (≈) assume the structure as drawn. “And” between values parts separate entries of the source, which are not always exact repeats. Equal values may be shown once.

For orientation: IC50 means the concentration that inhibits the measured activity by half. A higher IC50 goes with lower potency. On to `C=C1NC(=O)NC1=N` [Ex. 1, 4-Imino-5-methyleneimidazolidin-2-one], for which the IC50 in test [1] (Mus musculus, Splenocyte, 48 h, Concanavalin A stimulated, 3H-thymidine incorporation, Imexon and Ex. 1: mean ± standard deviation of n experiments, others: single tests No. 1-3) was 3.9 µg/mL (≈ 35.1 µM); in test [2], above 10.3 µg/mL; in test [3] it was 2.6 µg/mL (≈ 23.4 µM); in test [4] it was 1.9 µg/mL (≈ 17.1 µM).

`CC=C1NC(=O)NC1=N` [Ex. 2, 4-imino-5-ethylideneimidazolidin2-one]: the “IC50 LPT” value in test [1] (setting [5]) was 11,1 /μg/ml. Also, the half-inhibitory concentration (IC50) in test [1] (setting [6]) is 12 µg/mL (≈ 95.9 µM); in test [2], 22.6 µg/mL (≈ 181 µM); in test [3], above 10 µg/mL. Besides, in test [2], the “IC50 TGI” value was above 30 µg⁻¹ mL⁻¹.

For the molecule `CC(C)=C1NC(=O)NC1=N` [Ex. 3, 4-Imino-5-isopropylideneimidazolidin-2-one], the “IC50 LPT” value in test [1] (setting [5]) was 20,7 /μg/ml and > 10 /μg/ml.

Consider `C=C1NC(=O)N(Cc2ccccc2)C1=N` [Ex. 4, 3-Benzyl-4-imino-5-methyleneimidazolidin-2-one], for which 2.8 µg/mL (≈ 13.9 µM) corresponded to half-maximal inhibition in test [2] (IC50). Also, in test [4], the “IC50 BCGF” value was 1,6 /μg/ml and the IC50 was below 3 µg/mL.

As to `C=C1NC(=O)N(C)C1=N` [Ex. BV11, 3-methyl-4-imino-5-methyleneimidazolidin-2-one], the “IC50 TGI” value in test [2] is 2,3 /μg/ml. For the same molecule, the 50% inhibitory concentration (IC50) in test [2] is 4.2 µg/mL (≈ 33.6 µM); in test [3] it was at most 3 µg/mL.

For the molecule `C=C1NC(=O)N(CCC)C1=N` [Ex. BV12, 3-n-propyl-4-imino-5-methyleneimidazolidin-2-one], inhibition in test [2] was half-maximal at 7.5 µg/mL (≈ 49 µM) (IC50). Also, in test [3], the 50% inhibitory concentration (IC50) amounted to 5.1 µg/mL (≈ 33.3 µM) and the “IC50 IL 2” value was 4,6 /μg/ml. In test [4], the “IC50 BCGF” value was 2,6 /μg/ml and the IC50 came to 3.2 µg/mL (≈ 20.9 µM).

Consider `C=C1NC(=O)N(C2CCCCC2)C1=N` [Ex. BV14, 3-cyclohexyl-4-imino-5-methyleneimidazolidin-2-one], for which the IC50 in test [4] was below 3 µg/mL.

Take `C=C1NC(=O)N(Cc2ccncc2)C1=N` [Ex. BV16, 3-(4-pyridylmethyl)-4-imino-5-methyleneimidazolidin2-one]: in test [2], the “IC50 TGI” value was 5,1 /μg/ml and 5,5 /μg/ml; the half-inhibitory concentration (IC50) is 3.9 µg/mL (≈ 19.3 µM). In addition, in test [3], the midpoint of inhibition, the IC50, lay at 3.5 µg/mL (≈ 17.3 µM) and the “IC50 IL 2” value is reported as 4,8 /μg/ml.

Turning to `C=C1NC(=O)N(c2ccccc2)C1=N` [Ex. BV17, 3-phenyl-4-imino-5-methyleneimidazolidin-2-one], in test [2], the “IC50 TGI” value is 2,1 /μg/ml and 3,5 /μg/ml; the half-inhibitory concentration (IC50) was below 3 µg/mL.

For `N=C1NC(=O)N2CC12` (centres unmarked) [Imexon, 4-imino-1,3-diazabicyclo[3.1.0]hexan-2-one, reference compound], the IC50 amounted to 6.3 µg/mL (≈ 56.7 µM) in test [1] (setting [6]), 11.3 µg/mL (≈ 102 µM) in test [2], 5.1 µg/mL (≈ 45.9 µM) in test [3] and 0.9 µg/mL (≈ 8.1 µM) in test [4].
